Source: ChEMBL document CHEMBL1201862, “PubChem BioAssay data set” (2004)
Active and inactive are the calls of the source. Cut-off read from the data, not from the text of the source, for most assays here: actives have a measured EC50 and inactives only a lower limit.

Tests used:
[1] = target: Luciferin 4-monooxygenase (Photinus pyralis, UniProt P08659); test: Counter Screen for Luciferase-based Assay Positives. [Related pubchem assays: 620, 618, 411 ]
[2] = tested on: HT-1080; test: cytotoxicity in HT1080 fibrosarcoma cells, cell-based, fluorescence readout (AID 620); type: functional; details: Homo sapiens
[3] = target: T1, Bcl-2-like protein 10 (Homo sapiens, UniProt Q9HD36); test: displacers of TR3 peptide from Bcl-B, primary screen, selectivity assay for Bfl-1 inhibitor project, biochemical, fluorescence polarization, FITC-TR3 peptide (AID 748);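 note: fluorescence polarization from a fluorescein-labelled TR3 peptide binding purified Bcl-B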
T1 sequence (Q9HD36 whole entry): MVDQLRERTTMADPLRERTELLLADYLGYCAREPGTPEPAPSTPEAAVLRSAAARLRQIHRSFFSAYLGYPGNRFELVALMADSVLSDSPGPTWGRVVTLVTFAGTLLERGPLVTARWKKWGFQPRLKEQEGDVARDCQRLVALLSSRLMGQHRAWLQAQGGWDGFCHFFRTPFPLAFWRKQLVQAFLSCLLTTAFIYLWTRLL

[4] = target: Induced myeloid leukemia cell differentiation protein Mcl-1 (Homo sapiens, UniProt Q07820); type: functional
Chain of Induced myeloid leukemia cell differentiation protein Mcl-1 (Q07820 whole entry): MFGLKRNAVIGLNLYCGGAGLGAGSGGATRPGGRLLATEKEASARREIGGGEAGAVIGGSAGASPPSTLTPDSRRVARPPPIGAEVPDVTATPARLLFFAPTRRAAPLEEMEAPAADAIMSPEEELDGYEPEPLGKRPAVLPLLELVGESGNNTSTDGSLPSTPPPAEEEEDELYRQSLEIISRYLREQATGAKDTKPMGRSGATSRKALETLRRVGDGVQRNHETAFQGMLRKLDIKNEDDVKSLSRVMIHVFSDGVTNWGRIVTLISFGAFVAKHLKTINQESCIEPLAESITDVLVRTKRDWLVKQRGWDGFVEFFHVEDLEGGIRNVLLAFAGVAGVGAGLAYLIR

[5] = tested on: BJ; test: cytotoxicity toward BJ-TERT fibroblasts, dose response, cell-based, RAS-independent, luminescence (AID 1933); type: functional; details: Homo sapiens
[6] = inhibitors of SNCA 5'UTR-driven reporter translation, confirmation, H4 neuroglioma cells, luminescence (AID 1988); type: functional, cell-based
[7] = inhibitors of firefly luciferase expression or activity, dose response, H4 neuroglioma cells, luminescence (AID 1990); type: functional, cell-based
[8] = A Cell Based Secondary Assay To Explore Cytotoxicity of Compounds that Sensitize Mycobacterium Tuberculosis to Beta-Lactam Antibiotics.; type: functional
[9] = Luminescence Cell-Based Dose Response HTS to Identify Inhibitors of 5'UTR Stem-Loop Driven Prion Protein mRNA Translation in H4 Neuroglioblastoma Cells. [Related pubchem assays: 1827 (Project Summary), 1813 (Primary HTS)]; type: functional
[10] = cytotoxicity toward DRD oncogenic fibroblasts, dose response, cell-based, non-viral oncogenic, luminescence (AID 1934); type: functional; details: Homo sapiens
[11] = tested on: HeLa; test: Cytotoxicity counterscreen assay for transcriptional activators of heat shock protein 70 (Hsp70). [Related pubchem assays: 1203, 1252 ]; type: functional; details: Homo sapiens
[12] = tested on: BJ; test: cells; type: functional, cell-based; details: Homo sapiens
[13] = tested on: BJ; test: cytotoxicity toward BJ-TERT-LT-ST fibroblasts, dose response, cell-based, RAS-independent, luminescence (AID 1935); type: functional; details: Homo sapiens;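 note: BJ fibroblasts immortalized with TERT plus LT and ST oncogenes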
[14] = cytotoxicity in KRAS-transformed pancreatic duct cells, primary screen, cell-based, fluorescence, HTS (AID 431); type: functional; details: Homo sapiens;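 note: cell line used: HPDE-C7K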
[15] = tested on: INS1; test: beta cell apoptosis inhibitors, cytokine rescue, dose response, luminescence, retest (AID 449756); type: functional, cell-based; details: Rattus norvegicus;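 note: cell death triggered by IL-1 beta plus TNF-alpha plus IFN-gamma mixture; protective hits raise ATP signal compared with cytokine alone wells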
[16] = cytotoxicity in HPDE-C7 cells, cell-based, fluorescence, HTS (AID 430); type: functional; details: Homo sapiens
[17] = Luminescence Cell-Based Dose Retest to Confirm Inhibitors of Cancer Stem Cells. [Related pubchem assays (depositor defined):AID2717, AID2721]; type: functional; details: Homo sapiens
[18] = target: Eukaryotic translation initiation factor 4H (Homo sapiens, UniProt Q15056); test: human eIF4H binding inhibitors, primary screen, translation initiation inhibitor project, biochemical, uHTS, fluorescence polarization (AID 2012)
[19] = target: Polyadenylate-binding protein 1 (Homo sapiens, UniProt P11940); test: PABP poly(A) RNA binding inhibitors, primary screen, biochemical, fluorescence polarization, uHTS (AID 2014)
Chain of Polyadenylate-binding protein 1 (P11940 whole entry): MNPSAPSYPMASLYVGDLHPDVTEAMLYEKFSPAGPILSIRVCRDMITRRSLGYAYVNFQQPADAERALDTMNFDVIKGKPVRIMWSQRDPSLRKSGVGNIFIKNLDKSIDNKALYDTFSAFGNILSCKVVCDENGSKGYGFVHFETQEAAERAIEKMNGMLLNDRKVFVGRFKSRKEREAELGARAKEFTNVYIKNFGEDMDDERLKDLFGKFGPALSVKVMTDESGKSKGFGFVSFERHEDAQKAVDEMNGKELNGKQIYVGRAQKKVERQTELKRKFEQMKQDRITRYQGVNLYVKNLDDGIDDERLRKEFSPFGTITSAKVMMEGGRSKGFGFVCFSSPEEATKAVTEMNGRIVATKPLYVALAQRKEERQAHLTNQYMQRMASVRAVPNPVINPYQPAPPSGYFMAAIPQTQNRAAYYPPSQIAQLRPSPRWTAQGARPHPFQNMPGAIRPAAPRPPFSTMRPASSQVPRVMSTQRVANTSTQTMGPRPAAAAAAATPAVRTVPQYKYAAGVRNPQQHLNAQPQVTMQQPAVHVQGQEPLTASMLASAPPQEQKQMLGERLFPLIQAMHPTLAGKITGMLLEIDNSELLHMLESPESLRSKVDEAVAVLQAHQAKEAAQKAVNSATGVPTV

[20] = target: T2, Streptokinase A (Streptococcus pyogenes serotype M1, UniProt P10520); test: S. pyogenes streptokinase expression inhibitors, potency, dose response, plasminogen activation absorbance, OD405 (AID 1914); type: functional, Streptococcus pyogenes M1 GAS;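 note: secreted streptokinase activity via plasminogen activation per viability signal from cell pellet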
T2 sequence (P10520 whole entry): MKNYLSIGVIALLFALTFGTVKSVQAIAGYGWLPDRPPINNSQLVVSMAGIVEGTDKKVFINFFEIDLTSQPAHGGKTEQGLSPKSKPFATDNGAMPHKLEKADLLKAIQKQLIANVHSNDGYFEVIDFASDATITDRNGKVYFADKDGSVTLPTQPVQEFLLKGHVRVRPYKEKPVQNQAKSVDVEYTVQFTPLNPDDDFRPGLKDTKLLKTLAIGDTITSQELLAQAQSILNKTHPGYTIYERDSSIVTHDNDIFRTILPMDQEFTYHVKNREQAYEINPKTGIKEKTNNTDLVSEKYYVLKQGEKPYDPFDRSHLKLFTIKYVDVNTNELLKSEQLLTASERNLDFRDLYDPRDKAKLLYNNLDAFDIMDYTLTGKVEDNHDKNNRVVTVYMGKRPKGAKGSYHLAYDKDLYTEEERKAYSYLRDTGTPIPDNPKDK

[21] = tested on: Streptococcus sp. 'group A'; test: growth inhibition of control SK(-) GAS strain, dose response, counter-screen for streptokinase expression inhibitor project, luminescence, kanamycin, BacTiterGlo, confirmation (AID 1900); type: functional, organism-based
[22] = tested on: Streptococcus; test: Group A Streptococcus viability loss, dose response, counter-screen for streptokinase expression inhibitor project, luminescence, BacTiterGlo (AID 1915); type: functional, organism-based;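 note: potency for reduction of bacterial viability or growth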
[23] = target: Beta-galactosidase (Escherichia coli, UniProt Q8VNN2); test: beta-galactosidase enzyme inhibitors and activators, dose response, artefact control for CCR6 antagonist project, biochemical, E. coli enzyme, set 3 (AID 504712); type: functional
Chain of Beta-galactosidase (Q8VNN2 whole entry): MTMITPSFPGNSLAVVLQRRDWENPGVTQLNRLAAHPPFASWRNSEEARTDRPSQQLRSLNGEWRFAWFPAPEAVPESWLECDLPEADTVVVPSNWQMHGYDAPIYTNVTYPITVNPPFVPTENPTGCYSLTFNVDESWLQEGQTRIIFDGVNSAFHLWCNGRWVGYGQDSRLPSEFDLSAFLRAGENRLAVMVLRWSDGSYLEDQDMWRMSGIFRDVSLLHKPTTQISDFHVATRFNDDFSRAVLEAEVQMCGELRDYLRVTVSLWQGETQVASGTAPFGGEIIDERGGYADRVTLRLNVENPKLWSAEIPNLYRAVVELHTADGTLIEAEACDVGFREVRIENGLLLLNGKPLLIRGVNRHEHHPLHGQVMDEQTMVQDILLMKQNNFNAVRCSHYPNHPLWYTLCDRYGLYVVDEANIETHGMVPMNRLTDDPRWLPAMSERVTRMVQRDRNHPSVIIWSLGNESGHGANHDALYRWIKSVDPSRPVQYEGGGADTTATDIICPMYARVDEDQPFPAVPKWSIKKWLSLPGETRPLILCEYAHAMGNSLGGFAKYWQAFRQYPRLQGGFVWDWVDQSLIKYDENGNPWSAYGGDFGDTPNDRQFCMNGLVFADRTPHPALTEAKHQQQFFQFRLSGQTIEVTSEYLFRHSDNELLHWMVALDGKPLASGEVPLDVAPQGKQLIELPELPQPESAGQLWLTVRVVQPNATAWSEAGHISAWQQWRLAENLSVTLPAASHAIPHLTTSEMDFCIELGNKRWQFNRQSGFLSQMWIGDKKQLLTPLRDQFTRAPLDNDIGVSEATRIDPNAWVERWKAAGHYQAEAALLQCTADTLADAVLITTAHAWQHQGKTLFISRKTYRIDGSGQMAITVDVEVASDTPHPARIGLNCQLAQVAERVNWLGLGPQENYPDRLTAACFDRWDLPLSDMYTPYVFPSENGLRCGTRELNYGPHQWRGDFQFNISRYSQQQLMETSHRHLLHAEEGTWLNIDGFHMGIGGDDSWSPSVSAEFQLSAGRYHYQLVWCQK

[24] = tested on: HeLa; test: HeLa cell cytotoxicity, dose response, cytotoxicity control, 24 h, cherry-picked samples (AID 504726); type: functional, cell-based; details: Homo sapiens;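 note: potency for cytotoxicity as loss of luminescence signal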

Chain of Luciferin 4-monooxygenase (P08659 whole entry): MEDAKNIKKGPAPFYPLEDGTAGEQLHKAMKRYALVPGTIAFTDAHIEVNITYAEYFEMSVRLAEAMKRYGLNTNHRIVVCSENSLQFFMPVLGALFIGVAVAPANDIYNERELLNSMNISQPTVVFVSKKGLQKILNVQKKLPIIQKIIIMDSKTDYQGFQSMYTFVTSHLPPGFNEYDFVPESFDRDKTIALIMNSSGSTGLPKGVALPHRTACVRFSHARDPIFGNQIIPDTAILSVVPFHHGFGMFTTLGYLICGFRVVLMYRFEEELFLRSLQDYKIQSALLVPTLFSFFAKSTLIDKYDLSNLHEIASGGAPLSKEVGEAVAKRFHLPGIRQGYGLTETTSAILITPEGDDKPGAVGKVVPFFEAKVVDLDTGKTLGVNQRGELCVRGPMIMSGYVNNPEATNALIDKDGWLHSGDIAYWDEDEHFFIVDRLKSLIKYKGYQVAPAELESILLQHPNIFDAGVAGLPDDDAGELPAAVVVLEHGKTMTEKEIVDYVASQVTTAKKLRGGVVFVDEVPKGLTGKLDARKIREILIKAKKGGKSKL

## O=C(Nc1ccc2c(c1)OCCO2)c1cncc(Br)c1
[1]
  EC50: 12.1 µM (active)
[2]
  EC50: > 50 µM (not active)

## O=S(=O)(c1ccccc1)N(CC(O)CN1CCCCC1)c1ccccc1 (stereo not given)
[3]
  IC50: > 100 µM (inactive)

## CC(OC(=O)c1cccc(N2C(=O)c3ccccc3C2=O)c1)C(=O)Nc1ccc(N(C)C)cc1 (stereo not given)
[4]
  IC50: 6.19 µM (not active)

## COC(=O)c1[nH]c2ccc(C)cc2c1NC(=O)CCN1CCN(Cc2ccc3c(c2)OCO3)CC1
[3]
  IC50: > 100 µM (inactive)

## C=CCSc1nccc(-c2nn(-c3ccc(C)cc3)ccc2=O)n1
[5]
  EC50: 15.6 µM (active)
[6]
  EC50: 7.52 µM (active)
[7]
  EC50: 9.46 µM (active)
[8]
  CC50: 16.7 µM (active)
[9]
  EC50: > 120 µM (not active)
[10]
  EC50: 3.51 µM (inconclusive)
[11]
  CC50: > 33 µM (not active)
[12]
  EC50: 111 µM (active)
[13]
  EC50: 90.2 µM (active)

## Cc1nc2ccccc2n1-c1nc(-c2ccco2)cc(C(F)(F)F)n1
[14]
  EC50: 3.09 µM (active)
[5]
  EC50: 1.28 µM (active)
[6]
  EC50: 5.41 µM (active)
[7]
  EC50: > 120 µM (not active)
[15]
  AC50: 1.44 µM (active)
[9]
  EC50: 9.22 µM (active)
[10]
  EC50: 2.85 µM (active)
[16]
  EC50: 2.79 µM (active)
[12]
  EC50: 23.3 µM (inconclusive)
[17]
  AC50: 0.82 µM (active)
[13]
  EC50: 2.38 µM (inconclusive)

## C[n+]1ccccc1/C=C/c1ccc(F)c(F)c1
[18]
  IC50: 97.9 µM (active)
[19]
  IC50: 4.32 µM (active)

## CCCCCCC(=O)NN/C=C1\C(=O)NC(=S)N(C(C)CC)C1=O (stereo not given)
[20]
  EC50: > 150 µM (not active)
[21]
  EC50: 5.17 µM (active)
[22]
  EC50: 9.29 µM (active)
[23]
  IC50: > 66.6 µM (inactive)

## Oc1nc(S)nc2c1C(c1ccc(Br)cc1)c1c(O)nc(S)nc1O2
[24]
  AC50: > 350 µM (inactive)

## CCCOc1c(Br)cc(C(=O)NCC)cc1OC
[11]
  CC50: > 99 µM (not active)

## CC1=C(C(=O)OC(C)C)C(c2ccco2)NC(=O)N1 (stereo not given)
[18]
  IC50: 34.7 µM (active)
[19]
  IC50: 42.8 µM (active)
